Data as given in article PMC4886219, “Bioengineered kidney tubules efficiently excrete uremic toxins” (Scientific Reports, 2016).
Counter-ions that a name gives are not always drawn. Like-named read-outs stand apart in the source and are kept apart here.

How the values were obtained:
[1] = parameters: method as in Duranton et al.[6]; conditions: mean plasma levels in ESRD patients; ref Duranton et al.[6]; cited from earlier work
OAT3 = target: T1, OAT3 (Homo sapiens, UniProt Q8TCC7); assay: Fluorescein inhibition assay in ciPTEC-OAT3 flat monolayers
T1 sequence (Q8TCC7 1-542): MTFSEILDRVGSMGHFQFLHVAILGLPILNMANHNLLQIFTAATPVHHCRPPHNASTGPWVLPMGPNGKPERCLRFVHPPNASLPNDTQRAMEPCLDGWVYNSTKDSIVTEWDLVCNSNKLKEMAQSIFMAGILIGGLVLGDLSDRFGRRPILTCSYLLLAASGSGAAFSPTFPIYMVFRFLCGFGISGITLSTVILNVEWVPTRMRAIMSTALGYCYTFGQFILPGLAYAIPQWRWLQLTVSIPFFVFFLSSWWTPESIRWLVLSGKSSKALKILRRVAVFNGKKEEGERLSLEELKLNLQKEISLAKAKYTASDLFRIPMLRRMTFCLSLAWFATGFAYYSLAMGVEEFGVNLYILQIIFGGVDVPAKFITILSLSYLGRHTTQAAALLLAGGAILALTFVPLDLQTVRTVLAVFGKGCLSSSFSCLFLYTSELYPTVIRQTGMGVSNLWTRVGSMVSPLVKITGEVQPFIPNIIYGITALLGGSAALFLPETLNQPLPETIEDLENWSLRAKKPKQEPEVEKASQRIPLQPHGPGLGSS

OAT1 [2] = target: T2, OAT1 (Homo sapiens, UniProt Q4U2R8); assay: Fluorescein inhibition assay in ciPTEC-OAT1 flat monolayers
T2 sequence (Q4U2R8 1-563): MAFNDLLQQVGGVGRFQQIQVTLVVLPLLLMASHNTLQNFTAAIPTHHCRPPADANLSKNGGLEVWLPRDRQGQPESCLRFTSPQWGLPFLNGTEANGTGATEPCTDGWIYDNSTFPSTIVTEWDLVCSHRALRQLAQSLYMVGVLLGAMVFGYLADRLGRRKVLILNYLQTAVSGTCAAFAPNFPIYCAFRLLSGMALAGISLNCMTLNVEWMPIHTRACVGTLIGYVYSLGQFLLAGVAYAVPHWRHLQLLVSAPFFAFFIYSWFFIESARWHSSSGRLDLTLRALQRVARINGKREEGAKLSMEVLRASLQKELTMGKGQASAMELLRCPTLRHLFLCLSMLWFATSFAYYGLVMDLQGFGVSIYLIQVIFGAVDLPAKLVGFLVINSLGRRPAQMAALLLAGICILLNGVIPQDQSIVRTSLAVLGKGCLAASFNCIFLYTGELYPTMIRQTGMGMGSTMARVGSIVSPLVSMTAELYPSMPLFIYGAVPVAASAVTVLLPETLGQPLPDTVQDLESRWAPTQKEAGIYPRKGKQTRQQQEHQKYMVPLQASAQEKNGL

[3] = system: parent ciPTEC models lacking OAT1; assay: MTT cell viability assay in parent ciPTEC lacking OAT1; assay type: cell-based, human; conditions: parent ciPTEC lacking OAT1, in presence of efflux pump inhibitors
Experimental: After 4 hours of incubation, the intracellular
Monolayer polarization and transepithelial barrier function
Next, cells were incubated with
The mR NA expression level s of
PCR Master Mix (Applied Biosystems, Branchburg, NJ).

BCRP = system: BCRP; parameters: method as in earlier work; conditions: vesicular transport assay; ref 14 (Mutsaers et al.); cited from earlier work
MRP4 = system: MRP4; parameters: method as in earlier work; conditions: vesicular transport assay; ref 14 (Mutsaers et al.); cited from earlier work
[4] = system: bioengineered renal tubules (ciPTEC-OAT1 on HFM); assay: Transepithelial transport (clearance) of indoxyl sulfate and kynurenic acid in bioengineered renal tubules; assay type: cell-based; conditions: absence of human serum albumin; perfusion 10 min, 100 μM toxin
OAT1 [5] = target: T2, OAT1; assay: in vitro; conditions: pH 7.4, inhibition of indoxyl sulfate uptake
OAT1 [6] = target: T2, OAT1; assay: Uptake of indoxyl sulfate and kynurenic acid by ciPTEC-OAT1 (LC-MS/MS); conditions: 10 min, 37°C
[7] = read-out: ciPTEC-OAT1 IC50 (inhibition of fluorescein uptake), 1 μM fluorescein, 10 min, 37°C, flat monolayers, mean ± S.E.M.
[8] = read-out: ciPTEC-OAT3 IC50 (inhibition of fluorescein uptake), 1 μM fluorescein, 10 min, 37°C, flat monolayers, mean ± S.E.M.

IC50 (OAT3) | IC50 (OAT1 [2]) | SMILES | Cm in ESRD patients [1] | also measured
22 ± 9 µM |  | O=C(O)CNC(=O)c1ccccc1 [Hippuric acid] | 398 µM | 
148 ± 60 µM | 19 ± 2 µM | O=C(O)Cc1c[nH]c2ccccc12 [Indole-3-acetic acid] |  | 
 |  | O=S(=O)(O)Oc1c[nH]c2ccccc12 [Indoxyl sulfate] | 110 µM | TC50 (cell viability, MTT) [3]: 3000 ± 500 µM; inhibition of BCRP (in words) (BCRP): potent inhibitors; inhibition of MRP4 (in words) (MRP4): potent inhibitors
527 ± 218 µM | 492 ± 68 µM | O=C(O)[C@H]1O[C@@H](Oc2c[nH]c3ccccc23)[C@H](O)[C@@H](O)[C@@H]1O [Indoxyl-β-glucuronide] | 9 µM | 
219 ± 66 µM | 65 ± 8 µM | Nc1ccccc1C(=O)C[C@H](N)C(=O)O [L-Kynurenine] | 6 µM | 
 |  | Cc1ccc(O[C@@H]2O[C@H](C(=O)O)[C@@H](O)[C@H](O)[C@H]2O)cc1 [p-Cresylglucuronide] | 44 µM | IC50 (OAT1 [2]; [7]): 2650 ± 922 µM; IC50 (OAT3; [8]): 588 ± 81 µM
 |  | Cc1ccc(OS(=O)(=O)O)cc1 [p-Cresylsulfate] | 675 µM | IC50 (OAT1 [2]; [7]): 79 ± 14 µM; IC50 (OAT3; [8]): 112 ± 19 µM

SMILES | IC50 (OAT3) | IC50 (OAT1 [2]) | Cm in ESRD patients [1] | also measured
O=C(O)c1cc(=O)c2ccccc2[nH]1 [Kynurenic acid] | 6 ± 1 µM | 6 ± 1 µM |  | transepithelial clearance [4]: 72 ± 20 μl.min^−1.cm^−2; inhibition at 10 min, 100 μM (OAT1 [5]): 64 ± 13%; uptake by ciPTEC-OAT1 monolayers (OAT1 [6]; toxin 3 μM): 2.7 ± 0.3 pmol.min^−1.cm^−2; uptake by ciPTEC-OAT1 monolayers (OAT1 [6]; toxin 30 μM): 5.9 ± 0.5 pmol.min^−1.cm^−2
